Literature values in patent publication US7060729B2, “Composition and method for treating skin” (priority 2002, dated 2006).
Like-named read-outs stand apart in the source and are kept apart here.

Tests used:
H. pylori = conditions: Mayr-Kanhauser 2001
[1] = as stated in US 5,972,993
[2] = in vivo
[3] = topical application

Structure (SMILES)	eliminating H. pylori (H. pylori)	effect against skin redness, telangiectasia or flushing [1]	effect on papules and pustules of rosacea [1]	erythema, dryness, and burning associated with rosacea [2]	reducing the number of inflammatory lesions and associated signs and symptoms of rosacea [2]	telangiectasia [2]	physicians' rating of global improvement, azelaic acid versus metronidazole [2]	inflammatory papule lesions and erythema [3]	pustules caused by rosacea [3]	telangiectasia [3]
CC[C@H]1OC(=O)[C@H](C)[C@@H](O[C@H]2C[C@@](C)(OC)[C@@H](O)[C@H](C)O2)[C@H](C)[C@@H](O[C@@H]2O[C@H](C)C[C@H](N(C)C)[C@H]2O)[C@](C)(OC)C[C@@H](C)C(=O)[C@H](C)[C@@H](O)[C@]1(C)O [clarithromycin]	effective									
Cc1ncc([N+](=O)[O-])n1CCO [metronidazole, 2-methyl-5-nitro-1H-imidazole-1-ethanol]	effective	ineffective	have an effect	effective	equally effective	failed to effect				
O=C(O)CCCCCCCC(=O)O [azelaic acid, 1,7-heptanedicarboxylic acid]				effective	equally effective	failed to effect	more favorably	significantly reduce	not effective	did not produce any major improvement
